Legend:
[1] = Acute oral toxicity in rats (LD50, Lichtfield and Wilcoxon); settings: rat, in vivo, rats p.o. (table)
Method: The toxicities were determined according to Lichtfield and Wilcoxon, Journ. Pharm. Expt. Ther., 96, 99, 1949.

[2] = tested on: carrageenin induced edema; test: Carrageenin induced edema in the rat paw; assay type: in vivo; settings: dosage around 1/5 of its LD50
Method: (§1) The antiinflammatory activity was ascertained by means of several testing methods; in one, the ability of the compounds of the invention to reduce the edema induced in the rat paw by injection of carrageenin was evaluated and the test was performed according to the methodology described by C. A. Winter et al. in Proc. Soc. Exptl. Biol. Med. 111, 544, (1962). In another it was investigated the reduction by the test compounds of the weight of the granuloma formed on a cotton pellet implanted subcutaneously in a rat, following the method described by Meier et al. in Experientia 6, 469, (1950).
(§2) Representative experiments have shown that the compounds of Example 11, namely 2,3-dihydro-6-methoxy-N,2-dimethyl-4-benzofuranamine causes a reduction of the carrageenin induced edema of around 70 percent over the controls even when it is administered at an absolutely safe dosage i.e., around 1/5 of its LD50. In the granuloma cotton pellet test the same compound at the same dosage reduces the weight of the granuloma of more than 40 percent again over the controls.

[3] = tested on: granuloma formed on a cotton pellet implanted subcutaneously; test: Granuloma cotton pellet test; assay type: in vivo; settings: rat; same dosage, around 1/5 of its LD50
Method: as §1, §2

[4] = tested on: adjuvant induced arthritis; test: Adjuvant induced arthritis test in rats; assay type: in vivo; settings: for % reduction of the volume of the hind paws over the controls: rats p.o., Dose 200 mg/kg
Description: However, the most important pharmacological aspect of the compounds of the present invention is that they are effective also in the adjuvant induced arthritis test in rats. Said test is absolutely meaningful in that adjuvant arthritis is one of the best pharmacological parameters with which a pharmacologist can investigate compounds as to their possible antinflammatory activity, owing to the parallelism of effects existing between it and some articulation diseases observed in humans (see Pearson, C. M., Arthritis and allied conditions, page 119, Lea and Febiger Publ., 1967 and Pearson, C. M., J. Chronic Diseases, 16, 863, 1963).
The adjuvant induced arthritis test was performed as described by B. B. Newbould in Brit. Jour. Pharmacol., 21, 127, (1963). The measure of effectiveness of the compounds in this test is given by their ability in reducing the volume of the hind paws of the laboratory animals. […] The obtained results, which are summarized in the following table, were obtained by testing the compounds at a dosage corresponding to 1/5 of their LD50.

Structure (SMILES)	LD50 [1] [mg/kg]	reduction of the carrageenin induced edema over the controls [2]	reduction of the weight of the granuloma over the controls [3]	% reduction of the volume of the hind paws over the controls [4] [%]	activity in the adjuvant induced arthritis test compared with acetylsalicylic acid ([4]; rats, dosage corresponding to 1/5 of their LD50)
CNc1cc(OC)cc2c1CC(C)O2 (stereo not drawn) [Example 11, 2,3-dihydro-6-methoxy-N,2-dimethyl-4-benzofuranamine]	2800	around 70%	more than 40%	36	significantly more active
CC(=O)Oc1ccccc1C(=O)O [acetylsalicylic acid, reference compound]	–	–	–	25	–

Source: patent publication US4143055A, “2,4,6-Trisubstituted-2,3-dihydro-benzofuran derivatives” (Gruppo Lepetit S.p.A., priority 1978, dated 1979)
